Laboratory results as given in ChEMBL document CHEMBL1201862, “PubChem BioAssay data set” (2004).
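Exposure lasted 48 hours, with cells grown in 96-well plates and compounds tested at five concentrations. Abbreviation: GI50, concentration required for 50% inhibition of growth.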 Calls of active or inactive are those of the source. No stated cut-off is given here; in the data, active = GI50 up to about 1.1 µM and inactive = higher.

Columns and labels:
Assay in all cases: DTP human tumour cell line panel, 48 h
RPMI-8226 = test system: RPMI-8226
OVCAR-8 = test system: OVCAR-8
ACHN = test system: ACHN
TK-10 = test system: TK-10
HOP-92 = test system: HOP-92
SNB-19 = test system: SNB-19
DMS-114 = test system: DMS-114
MOLT-4 = test system: MOLT-4
786-0 = test system: 786-0
CAKI-1 = test system: CAKI-1
K562 = test system: K562
HCT-116 = test system: HCT-116
RXF 393 = test system: RXF 393
LXFL 529 = test system: LXFL 529
OVCAR-5 = test system: OVCAR-5
HCC 2998 = test system: HCC 2998
BT-549 = test system: BT-549
PC-3 = test system: PC-3
MDA-MB-435 = test system: MDA-MB-435
SR = test system: SR

SMILES | GI50 (RPMI-8226) | GI50 (OVCAR-8) | GI50 (ACHN) | GI50 (TK-10) | GI50 (HOP-92) | GI50 (SNB-19) | GI50 (DMS-114) | GI50 (MOLT-4) | GI50 (786-0) | GI50 (CAKI-1) | GI50 (K562) | GI50 (HCT-116) | GI50 (RXF 393) | GI50 (LXFL 529) | GI50 (OVCAR-5) | GI50 (HCC 2998) | GI50 (BT-549) | GI50 (PC-3) | GI50 (MDA-MB-435) | GI50 (SR)
CC(C)(C)c1cc(C2c3cc4c(cc3OC(O)(CO)C2C(=O)O)OCO4)cc(C(C)(C)C)c1O.CC(C)(C)c1cc(C2c3cc4c(cc3OC3(O)COC(=O)C23)OCO4)cc(C(C)(C)C)c1O (stereo not drawn) | 4.37 µM (inactive) | 10 µM (inactive) | 14.8 µM (inactive) | 22.7 µM (inactive) | 9.82 µM (inactive) | 12.9 µM (inactive) | 8.34 µM (inactive) | 3.52 µM (inactive) | 16.6 µM (inactive) | 18.4 µM (inactive) | 7.67 µM (inactive) | 8.47 µM (inactive) | 11.9 µM (inactive) | – | – | – | – | – | – | –
Cc1ccccc1NC(=O)c1ccc([N+](=O)[O-])cc1 | > 100 µM (inactive) | > 100 µM (inactive) | > 100 µM (inactive) | 97.3 µM (inactive) | > 100 µM (inactive) | > 100 µM (inactive) | 74 µM (inactive) | > 100 µM (inactive) | > 100 µM (inactive) | > 100 µM (inactive) | 93.5 µM (inactive) | > 100 µM (inactive) | 15.8 µM (inactive) | > 100 µM (inactive) | > 100 µM (inactive) | > 100 µM (inactive) | – | – | – | –
COC(=O)/C(=C\c1ccco1)P(=O)(OC)OC | 67.8 µM (inactive) | 31.5 µM (inactive) | 29.4 µM (inactive) | > 100 µM (inactive) | 25.2 µM (inactive) | 65.2 µM (inactive) | – | > 100 µM (inactive) | 47.4 µM (inactive) | 25.2 µM (inactive) | > 100 µM (inactive) | 44 µM (inactive) | 24.4 µM (inactive) | – | 16.2 µM (inactive) | > 100 µM (inactive) | 26.6 µM (inactive) | 73.5 µM (inactive) | 34.8 µM (inactive) | 52.8 µM (inactive)
O=C1C(=O)N(C(=O)c2ccc(Cl)c(Cl)c2)c2ccc(Cl)cc21 | 35.6 µM (inactive) | > 100 µM (inactive) | > 100 µM (inactive) | > 100 µM (inactive) | – | > 100 µM (inactive) | 27.1 µM (inactive) | 43.9 µM (inactive) | > 100 µM (inactive) | – | 59.3 µM (inactive) | – | > 100 µM (inactive) | 71.4 µM (inactive) | > 100 µM (inactive) | – | – | – | – | 89.7 µM (inactive)
CN(C)C(=S)/N=c1\ss/c(=N\C(=S)N(C)C)n1C1CCCCC1 | 25.5 µM (inactive) | 84.3 µM (inactive) | > 100 µM (inactive) | > 100 µM (inactive) | – | 22 µM (inactive) | 0.452 µM (active) | 80.2 µM (inactive) | > 100 µM (inactive) | > 100 µM (inactive) | 28.1 µM (inactive) | > 100 µM (inactive) | > 100 µM (inactive) | – | > 100 µM (inactive) | > 100 µM (inactive) | – | – | – | > 100 µM (inactive)
O=C(c1ccco1)N(C(=S)N1CCN(c2ccccc2)CC1)C1CCCCC1 | > 100 µM (inactive) | > 100 µM (inactive) | > 100 µM (inactive) | > 100 µM (inactive) | > 100 µM (inactive) | > 100 µM (inactive) | 38.7 µM (inactive) | > 100 µM (inactive) | > 100 µM (inactive) | > 100 µM (inactive) | > 100 µM (inactive) | 62.8 µM (inactive) | 52.6 µM (inactive) | 95.5 µM (inactive) | > 100 µM (inactive) | – | – | – | – | > 100 µM (inactive)
COc1cc(-c2ccccc2)c(OC)cc1CCl | > 100 µM (inactive) | > 100 µM (inactive) | > 100 µM (inactive) | > 100 µM (inactive) | – | > 100 µM (inactive) | > 100 µM (inactive) | > 100 µM (inactive) | > 100 µM (inactive) | > 100 µM (inactive) | > 100 µM (inactive) | > 100 µM (inactive) | > 100 µM (inactive) | – | > 100 µM (inactive) | > 100 µM (inactive) | – | – | – | –
COc1ccc(/C=C/C(=O)c2cc(C(=O)O)c(OC)cc2OC)cc1OC | > 100 µM (inactive) | > 100 µM (inactive) | > 100 µM (inactive) | – | > 100 µM (inactive) | > 100 µM (inactive) | > 100 µM (inactive) | > 100 µM (inactive) | > 100 µM (inactive) | – | > 100 µM (inactive) | > 100 µM (inactive) | – | > 100 µM (inactive) | > 100 µM (inactive) | – | – | – | – | > 100 µM (inactive)
OC(CC1SCCCS1)c1ccccc1 (stereo not drawn) | > 100 µM (inactive) | > 100 µM (inactive) | > 100 µM (inactive) | > 100 µM (inactive) | – | > 100 µM (inactive) | > 100 µM (inactive) | > 100 µM (inactive) | > 100 µM (inactive) | > 100 µM (inactive) | > 100 µM (inactive) | > 100 µM (inactive) | > 100 µM (inactive) | > 100 µM (inactive) | > 100 µM (inactive) | > 100 µM (inactive) | – | – | – | –
O=c1c2ccccc2c(=O)c2c1c1[nH]c3ccccc3c1c1c(=O)c3ccccc3c(=O)c21 | > 100 µM (inactive) | > 100 µM (inactive) | > 100 µM (inactive) | > 100 µM (inactive) | > 100 µM (inactive) | > 100 µM (inactive) | > 100 µM (inactive) | > 100 µM (inactive) | > 100 µM (inactive) | > 100 µM (inactive) | > 100 µM (inactive) | > 100 µM (inactive) | > 100 µM (inactive) | – | > 100 µM (inactive) | > 100 µM (inactive) | – | – | – | –
O=C(Nc1ccc([N+](=O)[O-])cc1C(=O)O)c1ccc([N+](=O)[O-])cc1 | 14.4 µM (inactive) | 32.1 µM (inactive) | 25.3 µM (inactive) | 70.3 µM (inactive) | 10.8 µM (inactive) | 36.6 µM (inactive) | 5.97 µM (inactive) | 14.8 µM (inactive) | 31.6 µM (inactive) | – | 15.1 µM (inactive) | 15.5 µM (inactive) | – | 24.4 µM (inactive) | 45.8 µM (inactive) | 16 µM (inactive) | – | – | – | –
[N-]=[N+]=NC1(Cc2ccccc2)C(=O)Nc2ccccc2C1=O (stereo not drawn) | – | > 100 µM (inactive) | > 100 µM (inactive) | > 100 µM (inactive) | > 100 µM (inactive) | > 100 µM (inactive) | > 100 µM (inactive) | > 100 µM (inactive) | > 100 µM (inactive) | > 100 µM (inactive) | > 100 µM (inactive) | > 100 µM (inactive) | – | > 100 µM (inactive) | > 100 µM (inactive) | > 100 µM (inactive) | – | – | – | > 100 µM (inactive)
O/N=C1/CCCC/C1=C/C=C/c1ccccc1 | 18.6 µM (inactive) | 41.9 µM (inactive) | 25.6 µM (inactive) | 29 µM (inactive) | 15.5 µM (inactive) | 48 µM (inactive) | – | 19 µM (inactive) | 23.2 µM (inactive) | 35.7 µM (inactive) | 18.4 µM (inactive) | 15.7 µM (inactive) | 19.4 µM (inactive) | 26 µM (inactive) | 26.7 µM (inactive) | 22.1 µM (inactive) | – | – | – | 5.71 µM (inactive)
O=[PH](O)c1cc2ccccc2c2ccccc12 | > 100 µM (inactive) | > 100 µM (inactive) | – | > 100 µM (inactive) | – | > 100 µM (inactive) | > 100 µM (inactive) | > 100 µM (inactive) | > 100 µM (inactive) | – | > 100 µM (inactive) | > 100 µM (inactive) | > 100 µM (inactive) | > 100 µM (inactive) | – | > 100 µM (inactive) | – | – | – | –
CC(=O)OC(CC1(C)C(C)CCC23COC(=O)C2=CCCC31)c1ccoc1 (stereo not drawn) | – | 20.3 µM (inactive) | 28.8 µM (inactive) | – | 26.2 µM (inactive) | 25.4 µM (inactive) | 29.9 µM (inactive) | 19.5 µM (inactive) | 17.1 µM (inactive) | – | 23.4 µM (inactive) | 20.5 µM (inactive) | 14.2 µM (inactive) | 18.4 µM (inactive) | 28.2 µM (inactive) | 22.3 µM (inactive) | – | – | – | –
C=C1C2CC(OC(C)=O)C3(C)C(c4ccoc4)OC(=O)[C@@H](O)[C@]13OC1C[C@H](OC(C)=O)C(C)(C)[C@H](CC(=O)OC)[C@]12C (stereo partly drawn) | > 100 µM (inactive) | > 100 µM (inactive) | > 100 µM (inactive) | > 100 µM (inactive) | 30.3 µM (inactive) | > 100 µM (inactive) | > 100 µM (inactive) | 70.6 µM (inactive) | > 100 µM (inactive) | – | > 100 µM (inactive) | > 100 µM (inactive) | – | > 100 µM (inactive) | – | > 100 µM (inactive) | – | – | – | –
N#C/C(=C\c1ccc(O)c(O)c1)C(N)=O | 15.5 µM (inactive) | 43.4 µM (inactive) | 41.6 µM (inactive) | 77.6 µM (inactive) | 49.9 µM (inactive) | 38.5 µM (inactive) | 22.7 µM (inactive) | 12.5 µM (inactive) | 20.6 µM (inactive) | 95.9 µM (inactive) | 34.6 µM (inactive) | 23 µM (inactive) | 19.7 µM (inactive) | 40.7 µM (inactive) | > 100 µM (inactive) | 53.1 µM (inactive) | – | – | – | –
COc1cc(CCc2ccc(N)cc2)cc(OC)c1OC | 64.6 µM (inactive) | > 75.9 µM (inactive) | > 100 µM (inactive) | > 74.3 µM (inactive) | 35.4 µM (inactive) | > 100 µM (inactive) | 34.3 µM (inactive) | 36.9 µM (inactive) | > 92.7 µM (inactive) | 67.8 µM (inactive) | 46.1 µM (inactive) | 50.9 µM (inactive) | 50.9 µM (inactive) | 59 µM (inactive) | > 100 µM (inactive) | > 47.8 µM (inactive) | – | – | – | –
